In ChEMBL document CHEMBL4477199, “Design and synthesis of novel bicalutamide and enzalutamide derivatives as antiproliferative agents for the treatment of prostate cancer” (Eur J Med Chem, 2016):

Columns and labels:
VCaP [1] = test: Potency index, ratio of bicalutamide IC50 to compound IC50 for human VCaP cells; format: functional
CWR22R [2] = test: Antiproliferative activity against human 22Rv1 cells after 96 hrs by propidium iodide staining based fluorescence 2D monolayer assay; format: functional, cell-based; conditions: 22Rv1, 96 h
DU-145 [3] = test: Potency index, ratio of bicalutamide IC50 to compound IC50 for human DU145 cells; format: functional
VCaP [4] = test: Potency index, ratio of (R)-bicalutamide IC50 to compound IC50 for human VCaP cells; format: functional
CWR22R [5] = test: Potency index, ratio of bicalutamide IC50 to compound IC50 for human 22Rv1 cells; format: functional
DU-145 [6] = test: Potency index, ratio of (R)-bicalutamide IC50 to compound IC50 for human DU145 cells; format: functional
[7] = 96 h
Description: Solubility in RPMI1640 culture medium at <30 uM incubated for 4 days by microscopic analysis

LNCaP [8] = test: Potency index, ratio of bicalutamide IC50 to compound IC50 for human LNCAP cells; format: functional
LNCaP [9] = test: Potency index, ratio of (R)-bicalutamide IC50 to compound IC50 for human LNCAP cells; format: functional
CWR22R [10] = test: Potency index, ratio of (R)-bicalutamide IC50 to compound IC50 for human 22Rv1 cells; format: functional
DU-145 [11] = test: Antiproliferative activity against human DU145 cells after 96 hrs by propidium iodide staining based fluorescence 2D monolayer assay; format: functional, cell-based; conditions: DU-145, 96 h
[12] = 33000 µM
Description: Solubility in 100% DMSO at 33 mM at -20 degC

LNCaP [13] = test: Antiproliferative activity against human LNCAP cells after 96 hrs by propidium iodide staining based fluorescence 2D monolayer assay; format: functional, cell-based
[14] = target: T1, Androgen receptor (Rattus norvegicus) (UniProt P15207); test: (§1) Antagonist activity at rat androgen receptor fused with DNA-binding domain of GAL4 expressed in AR-UAS-bla GripTite 293 cells assessed as inhibition of R1881-induced receptor activation preincubated for 30 mins followed by R1881 addition measured after 16 to 24 hrs by betalactamase reporter gene assay; format: cell-based
T1 sequence (whole entry): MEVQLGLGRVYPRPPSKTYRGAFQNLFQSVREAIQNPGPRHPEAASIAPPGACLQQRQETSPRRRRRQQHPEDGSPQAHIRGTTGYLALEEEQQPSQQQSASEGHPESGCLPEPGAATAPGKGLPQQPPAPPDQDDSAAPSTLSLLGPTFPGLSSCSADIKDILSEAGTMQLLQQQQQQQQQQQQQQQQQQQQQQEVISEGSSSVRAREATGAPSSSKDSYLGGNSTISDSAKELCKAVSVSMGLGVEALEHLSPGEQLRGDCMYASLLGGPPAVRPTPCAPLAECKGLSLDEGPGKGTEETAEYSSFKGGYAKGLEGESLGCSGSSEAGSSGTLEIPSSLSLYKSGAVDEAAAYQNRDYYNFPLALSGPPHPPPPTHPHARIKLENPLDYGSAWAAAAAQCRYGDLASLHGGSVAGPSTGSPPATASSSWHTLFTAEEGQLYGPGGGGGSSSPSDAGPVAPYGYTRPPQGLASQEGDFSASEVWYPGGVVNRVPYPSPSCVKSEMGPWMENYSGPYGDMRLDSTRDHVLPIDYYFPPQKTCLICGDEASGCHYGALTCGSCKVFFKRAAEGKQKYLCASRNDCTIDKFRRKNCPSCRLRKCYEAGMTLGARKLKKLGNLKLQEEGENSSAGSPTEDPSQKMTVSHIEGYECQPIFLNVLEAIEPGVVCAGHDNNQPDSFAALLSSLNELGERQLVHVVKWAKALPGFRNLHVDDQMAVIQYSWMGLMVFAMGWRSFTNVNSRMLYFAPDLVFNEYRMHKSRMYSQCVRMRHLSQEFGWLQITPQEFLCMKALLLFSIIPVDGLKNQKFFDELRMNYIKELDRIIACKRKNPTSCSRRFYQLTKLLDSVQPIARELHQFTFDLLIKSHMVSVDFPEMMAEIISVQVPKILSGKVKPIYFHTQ

Androgen receptor = target: T2, Androgen receptor (Rattus norvegicus, UniProt P15207); test: as §1; format: cell-based
T2 sequence (P15207 whole entry): T1 sequence (whole entry)

VCaP [15] = test: Antiproliferative activity against human VCaP cells after 96 hrs by propidium iodide staining based fluorescence 2D monolayer assay; format: functional, cell-based
[16] = Apparent permeability from apical to basolateral side in human Caco2 cells at 10 uM incubated for 120 mins by LC-MS/MS analysis; conditions: Caco-2
[17] = Half life in human liver microsomes at 3 uM preincubated with compound followed by NADPH addition by LC-MS/MS analysis
[18] = Apparent permeability from basolateral to apical side in human Caco2 cells at 10 uM incubated for 120 mins by LC-MS/MS analysis; conditions: Caco-2
[19] = Efflux ratio of apparent permeability from basolateral to apical side over apical to basolateral side in human Caco2 cells at 10 uM incubated for 120 mins by LC-MS/MS analysis; conditions: Caco-2
HepG2 [20] = test: Cytotoxicity against human HepG2 cells assessed as reduction in cell viability at 100 uM after 72 hrs by MTT assay relative to control; format: functional
HepG2 [21] = test: Cytotoxicity against human HepG2 cells assessed as reduction in cell viability after 72 hrs by MTT assay; format: functional, cell-based; conditions: HepG2, 72 h; for minimal effective concentration: read-out: MEC
in vitro = conditions: human
[22] = Metabolic stability in human liver microsomes at 3 uM preincubated with compound followed by NADPH addition measured after 5 to 45 mins by LC-MS/MS analysis; format: ADME, Microsome
[23] = target: T1, Androgen receptor (Rattus norvegicus); test: as §1, with “activation at 1 uM” for “activation”, “assay relative to control” for “assay”; format: cell-based

Row | SMILES | IC50 (CWR22R [2]) [µM] | solubility [7] | IC50 (DU-145 [11]) [µM] | solubility [12] | IC50 (LNCaP [13]) [µM] | inhibition [14] | IC50 (Androgen receptor) [µM] | IC50 (VCaP [15]) [µM] | Papp A→B at 2 h, 10 µM [16] [×10⁻⁶ cm/s] | Papp B→A at 2 h, 10 µM [18] [×10⁻⁶ cm/s] | efflux ratio at 2 h, 10 µM [19] | AC50 (HepG2 [21]) [µM] | minimal effective concentration (HepG2 [21]) [µM] | other results
1 | C[C@](O)(CS(=O)(=O)c1ccc(C(F)(F)F)cc1)C(=O)Nc1ccc(C#N)c(C(F)(F)F)c1 | 20.2 | Soluble | 26.8 | Soluble | 17.5 | Dose-dependent effect | 0.775 | 31.4 |  |  |  |  |  | Ratio IC50 (VCaP [1]): <=2; Ratio IC50 (DU-145 [3]): <=2; Ratio IC50 (VCaP [4]): 2; Ratio IC50 (CWR22R [5]): <=2; Ratio IC50 (DU-145 [6]): 2; Ratio IC50 (LNCaP [8]): <=2; Ratio IC50 (LNCaP [9]): 2; Ratio IC50 (CWR22R [10]): 2
2 | CC(O)(CSc1ccccc1C(F)(F)F)C(=O)Nc1ccc([N+](=O)[O-])c(C(F)(F)F)c1 (configuration not stated) | 4.6 | Soluble | 7.57 | Soluble | 4.78 | Dose-dependent effect | 0.28 | 4.45 | 3.44 | 2.9 | 0.843 | 2.73 | 1.71 | half-life at 3 µM ([17]; microsomes): 3.39 min; cell viability reduction (HepG2 [20]): 98%; microsomal CLint at 3 µM (in vitro; microsomes): 409 µL/min/mg
3 | CC(O)(COc1ccc(C(F)(F)F)cc1)C(=O)Nc1ccc(C#N)c(C(F)(F)F)c1 (configuration not stated) | 6.91 | Soluble | 16.3 | Soluble | 6.45 |  |  | 9.65 | 5.09 | 4.8 | 0.943 | 23.9 | 11.3 | Stability [22]: Stable
4 | CC(O)(CSc1cccc(C(F)(F)F)c1)C(=O)Nc1ccc([N+](=O)[O-])c(C(F)(F)F)c1 (configuration not stated) | 5.07 | Soluble | 8.73 | Soluble | 6.44 | Dose-dependent effect | 0.625 | 8.64 | 5 | 4.27 | 0.853 | 26.1 | 13.2 | half-life at 3 µM ([17]; liver microsomes): 6.87 min; microsomal CLint at 3 µM (in vitro; liver microsomes): 202 µL/min/mg
5 | C[C@](O)(CSc1ccc(C(F)(F)F)cc1)C(=O)Nc1ccc(C#N)c(C(F)(F)F)c1 | 9.75 | Soluble | 17.2 | Soluble | 14.5 | Dose-dependent effect | 2.17 | 9.28 | 5.8 | 4.74 | 0.817 | 61.2 | 49.6 | half-life at 3 µM ([17]; liver microsomes): 5.6 min; microsomal CLint at 3 µM (in vitro; liver microsomes): 248 µL/min/mg
6 | CC(O)(CS(=O)(=O)c1ccccc1C(F)(F)F)C(=O)Nc1ccc([N+](=O)[O-])c(C(F)(F)F)c1 (configuration not stated) | 18.6 | Soluble | 37.5 | Soluble | 25.7 | Dose-dependent effect | 0.811 | 27.6 | 13.3 | 17.2 | 1.29 | 32.6 | 22.7 | Stability [22]: Stable
7 | CC(O)(COc1ccc(C#N)c(F)c1)C(=O)Nc1ccc([N+](=O)[O-])c(C(F)(F)F)c1 (configuration not stated) | 11.8 | Soluble | 16.4 | Soluble | 7.71 | Dose-dependent effect | 0.0492 | 12.4 |  |  |  |  |  | inhibition [23]: 65%
